# From PubChem BioAssay AID1963964 (Molecular Pharmacology Branch, DTP, NCI, 2024)
# System: 997726-040-R-J2-PDC tumor spheroids, viability
# Test: Anticancer human tumor 997726-040-R-J2-PDC patient-derived squamous cell lung carcinoma cell line growth inhibition [PI3K]
# Conditions: spheroids with HUVEC and MSC; for IC50: curve of first compound; for viability, T/C: stronger effect = lower value
# Summary of the method: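 Complex 3D spheroids (cancer cells + endothelial HUVEC + mesenchymal stem cells); drug pairs of targeted agent x inavolisib/alpelisib/duvelisib/copanlisib; half-log series from ~Cmax, max 10 microM if Cmax unknown; endpoint viability.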
# 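Note: spheroids exposed to compounds for seven days before readout.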
smiles,measurement,setting,value
CNC(=O)c1ccc(N2C(=S)N(c3ccc(C#N)c(C(F)(F)F)c3)C(=O)C2(C)C)cc1F + Cc1nc(NC(=O)N2CCCC2C(N)=O)sc1-c1ccnc(C(C)(C)C(F)(F)F)c1,IC50,second compound 0.0316 µM,> 10 µM
same,IC50,second compound 0.1 µM,> 10 µM
same,IC50,second compound 0.316 µM,> 10 µM
same,IC50,second compound 1 µM,< 0.0316 µM
same,IC50,second compound 3.16 µM,< 0.0316 µM
same,IC50,second compound 10 µM,< 0.0316 µM
same,"viability, T/C","second compound 0.0316 µM, first compound 0.0316 µM",74.4%
same,"viability, T/C","second compound 0.0316 µM, first compound 0.1 µM",82.2%
same,"viability, T/C","second compound 0.0316 µM, first compound 0.316 µM",80.9%
same,"viability, T/C","second compound 0.0316 µM, first compound 1 µM",89.3%
same,"viability, T/C","second compound 0.0316 µM, first compound 3.16 µM",81.9%
same,"viability, T/C","second compound 0.0316 µM, first compound 10 µM",78.8%
same,"viability, T/C","second compound 0.1 µM, first compound 0.0316 µM",74.5%
same,"viability, T/C","second compound 0.1 µM, first compound 0.1 µM",81.3%
same,"viability, T/C","second compound 0.1 µM, first compound 0.316 µM",73.5%
same,"viability, T/C","second compound 0.1 µM, first compound 1 µM",69.7%
same,"viability, T/C","second compound 0.1 µM, first compound 3.16 µM",70.5%
same,"viability, T/C","second compound 0.1 µM, first compound 10 µM",71.1%
same,"viability, T/C","second compound 0.316 µM, first compound 0.0316 µM",51.3%
same,"viability, T/C","second compound 0.316 µM, first compound 0.1 µM",65%
same,"viability, T/C","second compound 0.316 µM, first compound 0.316 µM",54.5%
same,"viability, T/C","second compound 0.316 µM, first compound 1 µM",57.9%
same,"viability, T/C","second compound 0.316 µM, first compound 3.16 µM",48.9%
same,"viability, T/C","second compound 0.316 µM, first compound 10 µM",54.6%
same,"viability, T/C","second compound 1 µM, first compound 0.0316 µM",41.7%
same,"viability, T/C","second compound 1 µM, first compound 0.1 µM",44.2%
same,"viability, T/C","second compound 1 µM, first compound 0.316 µM",37.5%
same,"viability, T/C","second compound 1 µM, first compound 1 µM",38.2%
same,"viability, T/C","second compound 1 µM, first compound 3.16 µM",39.9%
same,"viability, T/C","second compound 1 µM, first compound 10 µM",39%
same,"viability, T/C","second compound 3.16 µM, first compound 0.0316 µM",32.7%
same,"viability, T/C","second compound 3.16 µM, first compound 0.1 µM",29.3%
same,"viability, T/C","second compound 3.16 µM, first compound 0.316 µM",26.9%
same,"viability, T/C","second compound 3.16 µM, first compound 1 µM",29.5%
same,"viability, T/C","second compound 3.16 µM, first compound 3.16 µM",30.4%
same,"viability, T/C","second compound 3.16 µM, first compound 10 µM",25.5%
same,"viability, T/C","second compound 10 µM, first compound 0.0316 µM",16.1%
same,"viability, T/C","second compound 10 µM, first compound 0.1 µM",16.9%
same,"viability, T/C","second compound 10 µM, first compound 0.316 µM",12.6%
same,"viability, T/C","second compound 10 µM, first compound 1 µM",13.2%
same,"viability, T/C","second compound 10 µM, first compound 3.16 µM",11.9%
same,"viability, T/C","second compound 10 µM, first compound 10 µM",9.07%
Cn1cnc2c(F)c(Nc3ccc(Br)cc3Cl)c(C(=O)NOCCO)cc21 + Cc1nc(NC(=O)N2CCCC2C(N)=O)sc1-c1ccnc(C(C)(C)C(F)(F)F)c1,IC50,second compound 0.0316 µM,0.129 µM
same,IC50,second compound 0.1 µM,0.0662 µM
same,IC50,second compound 0.316 µM,< 0.00949 µM
same,IC50,second compound 1 µM,< 0.00949 µM
same,IC50,second compound 3.16 µM,< 0.00949 µM
same,IC50,second compound 10 µM,< 0.00949 µM
same,"viability, T/C","second compound 0.0316 µM, first compound 0.00949 µM",74.8%
same,"viability, T/C","second compound 0.0316 µM, first compound 0.03 µM",58.5%
same,"viability, T/C","second compound 0.0316 µM, first compound 0.0949 µM",53.5%
same,"viability, T/C","second compound 0.0316 µM, first compound 0.3 µM",41.7%
same,"viability, T/C","second compound 0.0316 µM, first compound 0.949 µM",45.9%
same,"viability, T/C","second compound 0.0316 µM, first compound 3 µM",34.1%
same,"viability, T/C","second compound 0.1 µM, first compound 0.00949 µM",67.6%
same,"viability, T/C","second compound 0.1 µM, first compound 0.03 µM",56.1%
same,"viability, T/C","second compound 0.1 µM, first compound 0.0949 µM",44.9%
same,"viability, T/C","second compound 0.1 µM, first compound 0.3 µM",40.5%
same,"viability, T/C","second compound 0.1 µM, first compound 0.949 µM",38.7%
same,"viability, T/C","second compound 0.1 µM, first compound 3 µM",28.5%
same,"viability, T/C","second compound 0.316 µM, first compound 0.00949 µM",51.1%
same,"viability, T/C","second compound 0.316 µM, first compound 0.03 µM",40.6%
same,"viability, T/C","second compound 0.316 µM, first compound 0.0949 µM",35.7%
same,"viability, T/C","second compound 0.316 µM, first compound 0.3 µM",34.3%
same,"viability, T/C","second compound 0.316 µM, first compound 0.949 µM",28.4%
same,"viability, T/C","second compound 0.316 µM, first compound 3 µM",22.2%
same,"viability, T/C","second compound 1 µM, first compound 0.00949 µM",36.7%
same,"viability, T/C","second compound 1 µM, first compound 0.03 µM",32.6%
same,"viability, T/C","second compound 1 µM, first compound 0.0949 µM",29.4%
same,"viability, T/C","second compound 1 µM, first compound 0.3 µM",25.3%
same,"viability, T/C","second compound 1 µM, first compound 0.949 µM",22.7%
same,"viability, T/C","second compound 1 µM, first compound 3 µM",21.2%
same,"viability, T/C","second compound 3.16 µM, first compound 0.00949 µM",24.8%
same,"viability, T/C","second compound 3.16 µM, first compound 0.03 µM",21.2%
same,"viability, T/C","second compound 3.16 µM, first compound 0.0949 µM",22.2%
same,"viability, T/C","second compound 3.16 µM, first compound 0.3 µM",20.9%
same,"viability, T/C","second compound 3.16 µM, first compound 0.949 µM",20.7%
same,"viability, T/C","second compound 3.16 µM, first compound 3 µM",14.3%
same,"viability, T/C","second compound 10 µM, first compound 0.00949 µM",17.8%
same,"viability, T/C","second compound 10 µM, first compound 0.03 µM",17.2%
same,"viability, T/C","second compound 10 µM, first compound 0.0949 µM",15.5%
same,"viability, T/C","second compound 10 µM, first compound 0.3 µM",15.3%
same,"viability, T/C","second compound 10 µM, first compound 0.949 µM",12.2%
same,"viability, T/C","second compound 10 µM, first compound 3 µM",7.26%
